# Measured values published in ChEMBL document CHEMBL3872248, “Discovery and initial optimization of alkoxyanthranilic acid derivatives as inhibitors of HCV NS5B polymerase” (Bioorg Med Chem Lett, 2017).
# Active and inactive are the calls of the source. No cut-off for these calls is given here.
# Columns and labels:
# [1] = Inhibition of wild-type HCV genotype 1b Con1 C-terminal truncated NS5B RNA dependent RNA polymerase expressed in Escherichia coli BL21(DE3) Star assessed as inhibition of [alpha-32P]UTP incorporation using polyrA/T12 as template/primer measured after 60 mins by TopCount NXT method; design: species or system Hepatitis C virus (isolate Con1)
# Hepatitis C virus [2] = test: Antiviral activity against HCV genotype 1b Con1 expressing NS3 protease infected in human Huh-7 cells assessed as reduction in viral RNA replication measured after 3 days by EnduRen-based luciferase reporter gene assay; type: functional, cell-based, Hepacivirus hominis; settings: genotype 1b Con1, Huh-7, 72 h
# [3] = target: RNA-directed RNA polymerase (Hepacivirus hominis, UniProt O39930, C316Y); test: Inhibition of wild-type HCV genotype 1b Con1 NS5B RNA dependent RNA polymerase C316Y mutant expressed in Escherichia coli BL21(DE3) Star assessed as inhibition of [alpha-32P]UTP incorporation using polyrA/T12 as template/primer measured after 60 mins by TopCount NXT method; design: species or system Hepatitis C virus (isolate Con1)
# Hepatitis C virus [4] = test: Antiviral activity against HCV genotype 1b Con1 expressing C-terminal truncated NS5B assessed as inhibition of viral RNA production at 50 uM by high throughput screening method; type: functional; settings: Hepacivirus hominis
# Chain of RNA-directed RNA polymerase (O39930 entry or part of it C316Y): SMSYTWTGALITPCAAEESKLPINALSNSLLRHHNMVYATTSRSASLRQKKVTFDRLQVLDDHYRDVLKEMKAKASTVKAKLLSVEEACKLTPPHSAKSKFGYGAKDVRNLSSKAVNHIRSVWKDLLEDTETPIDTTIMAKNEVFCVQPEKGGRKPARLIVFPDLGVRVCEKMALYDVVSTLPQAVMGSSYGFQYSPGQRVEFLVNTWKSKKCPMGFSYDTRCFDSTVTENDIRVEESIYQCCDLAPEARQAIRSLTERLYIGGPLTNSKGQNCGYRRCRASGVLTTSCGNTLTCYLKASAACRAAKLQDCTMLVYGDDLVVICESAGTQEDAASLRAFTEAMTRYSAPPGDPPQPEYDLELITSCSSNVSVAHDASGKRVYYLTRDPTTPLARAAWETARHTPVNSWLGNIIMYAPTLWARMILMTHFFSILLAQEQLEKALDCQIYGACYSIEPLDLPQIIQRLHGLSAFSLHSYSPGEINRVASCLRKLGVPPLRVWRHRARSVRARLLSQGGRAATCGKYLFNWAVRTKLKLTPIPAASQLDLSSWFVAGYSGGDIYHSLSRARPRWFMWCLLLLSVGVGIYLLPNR
Compound,IC50 [1] [µM],other results
O=C(NCCO)c1ccc(OCc2ccc(Cl)cc2)c(NC(=O)c2ccccc2)c1,> 50,–
CN(C(=O)c1ccccc1)c1c(OCc2ccc(Cl)cc2)cccc1C(=O)O,> 50,–
O=C(Nc1c(OCc2ccc(Cl)cc2)cccc1-c1nnn[nH]1)c1ccccc1,25,–
CS(=O)(=O)NC(=O)c1ccc(OCc2ccc(Cl)cc2)c(NC(=O)c2ccccc2)c1,15,–
O=C(Nc1c(OCc2ccc(Cl)cc2)cccc1C(=O)NCCO)c1ccccc1,> 50,–
O=C(Nc1c(OCc2ccc(Cl)cc2)cccc1C(=O)O)c1ccccc1,8.4,IC50 [3]: > 50 µM; inhibition (Hepatitis C virus [4]): Active
O=C(O)CCCOc1cccc2c1CN(c1c(OCc3ccc(Cl)cc3)cccc1C(=O)O)C2=O,11,–
O=C(O)Cc1cccc(OCc2ccc(Cl)cc2)c1NC(=O)c1ccccc1,10,–
CS(=O)(=O)NC(=O)c1cccc(OCc2ccc(Cl)cc2)c1NC(=O)c1ccccc1,24,–
O=C(O)c1cccc(OCc2ccc(Cl)cc2)c1N1CCCc2ccccc2C1=O,32,–

# Continued, in another order:
IC50 [1] [µM],Compound,other results
6.2,O=C(O)CNC(=O)c1ccc(OCc2ccc(Cl)cc2)c(NC(=O)c2ccccc2)c1,–
0.88,O=C(O)CNC(=O)c1ccc(OCc2ccc(Cl)cc2)c(N2Cc3ccccc3C2=O)c1,EC50 (Hepatitis C virus [2]): > 100 µM
6.6,O=C(O)c1cccc(OCc2ccc(Cl)cc2)c1N1Cc2c(O)cccc2C1=O,–
2.1,O=C(O)CCCOc1ccccc1C(=O)Nc1c(OCc2ccc(Cl)cc2)cccc1C(=O)O,–
1.2,O=C(O)COc1ccccc1C(=O)Nc1c(OCc2ccc(Cl)cc2)cccc1C(=O)O,–
4.6,O=C(Nc1c(OCc2ccc(Cl)cc2)cccc1C(=O)O)c1ccccc1O,–
8.7,O=C(O)c1cccc(OCc2ccc(Cl)cc2)c1N1Cc2ccccc2C1=O,–
8.3,O=C(O)c1ccc(OCc2ccc(Cl)cc2)c(NC(=O)c2ccccc2)c1,–
1.7,O=C(O)/C=C/c1cccc2c1CN(c1c(OCc3ccc(Cl)cc3)cccc1C(=O)O)C2=O,–
4.4,O=C(O)COc1cccc2c1CN(c1c(OCc3ccc(Cl)cc3)cccc1C(=O)O)C2=O,–
